In general, IC50 refers to the midpoint of a concentration-inhibition curve.

Each structure is given as a SMILES string.

Common to all, as to type: cell-based
Assay [1] has as its target T1, human TLR8 (Homo sapiens, UniProt Q9NR97).
T1 construct: host or cells: HEK-Blue cells (HEK293-derived reporter line)
T1 sequence (Q9NR97 27-1041): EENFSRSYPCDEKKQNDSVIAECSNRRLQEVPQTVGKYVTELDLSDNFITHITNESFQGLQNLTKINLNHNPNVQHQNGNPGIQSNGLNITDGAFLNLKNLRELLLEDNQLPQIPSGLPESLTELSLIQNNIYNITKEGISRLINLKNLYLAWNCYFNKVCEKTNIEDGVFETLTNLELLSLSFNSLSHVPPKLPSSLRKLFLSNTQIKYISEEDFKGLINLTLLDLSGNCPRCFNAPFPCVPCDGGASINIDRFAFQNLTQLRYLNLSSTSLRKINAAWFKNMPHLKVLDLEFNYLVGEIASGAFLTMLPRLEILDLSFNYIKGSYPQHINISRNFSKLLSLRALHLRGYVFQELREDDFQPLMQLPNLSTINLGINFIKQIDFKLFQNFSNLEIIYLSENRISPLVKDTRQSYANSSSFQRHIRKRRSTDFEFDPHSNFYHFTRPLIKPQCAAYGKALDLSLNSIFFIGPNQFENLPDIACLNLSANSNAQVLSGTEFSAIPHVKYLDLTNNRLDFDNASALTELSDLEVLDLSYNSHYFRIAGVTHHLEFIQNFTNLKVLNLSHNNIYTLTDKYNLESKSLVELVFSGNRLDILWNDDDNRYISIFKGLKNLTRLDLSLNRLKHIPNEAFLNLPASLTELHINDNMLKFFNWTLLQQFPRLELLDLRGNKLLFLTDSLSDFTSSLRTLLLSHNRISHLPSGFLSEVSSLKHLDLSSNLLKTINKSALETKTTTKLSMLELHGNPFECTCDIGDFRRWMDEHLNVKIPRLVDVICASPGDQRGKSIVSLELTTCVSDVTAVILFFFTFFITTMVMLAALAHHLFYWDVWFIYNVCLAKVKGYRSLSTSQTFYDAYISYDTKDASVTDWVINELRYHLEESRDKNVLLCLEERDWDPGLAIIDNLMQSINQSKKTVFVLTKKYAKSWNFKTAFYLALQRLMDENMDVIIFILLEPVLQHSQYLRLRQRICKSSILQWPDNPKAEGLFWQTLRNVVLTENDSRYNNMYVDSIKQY
Description: TLR8 inhibition reporter assay (HEK-Blue cells, SEAP reporter, R848 stimulation). The following applies: HEK-Blue cells overexpressing human TLR8, SEAP reporter, R848 15.9 μM. In a few lines:
(§1)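 Agonists (final): TLR7 gardiquimod 7.5 μM; TLR8 R848 15.9 μM; TLR9 ODN2006 5 nM. HEK-Blue reporter cells, 30 min RT compound pre-incubation, 0.05 nM–50 μM dose range, 22 h at 37 °C, colorimetric SEAP detection medium. % inhibition relative to agonist+DMSO and known-inhibitor wells.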
A general note: In a reporter assay the amount or activity of a reporter protein is the signal.

The target in assay [2] is T2, human TLR7 (Homo sapiens, UniProt Q9NYK1).
T2 construct: host or cells: HEK-Blue cells (HEK293-derived reporter line)
T2 sequence (Q9NYK1 27-1049): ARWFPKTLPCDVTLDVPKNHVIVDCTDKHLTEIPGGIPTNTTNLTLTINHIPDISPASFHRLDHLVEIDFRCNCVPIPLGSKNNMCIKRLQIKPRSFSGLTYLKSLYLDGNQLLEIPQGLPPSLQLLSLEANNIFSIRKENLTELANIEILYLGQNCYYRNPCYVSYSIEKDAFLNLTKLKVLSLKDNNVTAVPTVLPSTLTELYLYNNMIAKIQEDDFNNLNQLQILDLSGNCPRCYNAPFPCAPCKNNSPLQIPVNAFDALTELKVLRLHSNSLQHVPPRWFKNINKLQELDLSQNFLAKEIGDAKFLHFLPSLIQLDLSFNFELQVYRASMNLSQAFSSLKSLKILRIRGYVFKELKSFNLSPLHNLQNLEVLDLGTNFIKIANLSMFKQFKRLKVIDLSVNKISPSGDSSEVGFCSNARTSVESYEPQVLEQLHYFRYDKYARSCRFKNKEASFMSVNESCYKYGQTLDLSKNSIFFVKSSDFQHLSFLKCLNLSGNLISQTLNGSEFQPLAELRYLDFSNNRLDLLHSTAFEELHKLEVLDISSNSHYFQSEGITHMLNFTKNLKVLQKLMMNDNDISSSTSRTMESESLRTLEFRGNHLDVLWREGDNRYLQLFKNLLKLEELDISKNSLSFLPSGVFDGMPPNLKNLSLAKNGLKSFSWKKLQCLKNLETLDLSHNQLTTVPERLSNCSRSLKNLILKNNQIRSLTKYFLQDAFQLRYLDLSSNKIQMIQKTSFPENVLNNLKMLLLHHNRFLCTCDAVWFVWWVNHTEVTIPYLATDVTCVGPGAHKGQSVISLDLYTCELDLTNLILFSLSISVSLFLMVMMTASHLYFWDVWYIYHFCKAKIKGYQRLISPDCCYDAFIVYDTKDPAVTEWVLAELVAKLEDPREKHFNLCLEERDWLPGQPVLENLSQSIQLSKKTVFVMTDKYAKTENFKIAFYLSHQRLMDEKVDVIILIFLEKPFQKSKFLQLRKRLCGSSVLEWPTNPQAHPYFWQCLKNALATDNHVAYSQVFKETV
Description: TLR7 inhibition reporter assay (HEK-Blue cells, SEAP reporter, gardiquimod stimulation). The conditions noted are these: HEK-Blue cells overexpressing human TLR7, SEAP reporter, gardiquimod 7.5 μM. In a few lines:
as §1

Assay [3] addresses T3, human TLR9 (Homo sapiens, UniProt Q9NR96).
T3 construct: host or cells: HEK-Blue cells (HEK293-derived reporter line)
T3 sequence (Q9NR96 26-1032): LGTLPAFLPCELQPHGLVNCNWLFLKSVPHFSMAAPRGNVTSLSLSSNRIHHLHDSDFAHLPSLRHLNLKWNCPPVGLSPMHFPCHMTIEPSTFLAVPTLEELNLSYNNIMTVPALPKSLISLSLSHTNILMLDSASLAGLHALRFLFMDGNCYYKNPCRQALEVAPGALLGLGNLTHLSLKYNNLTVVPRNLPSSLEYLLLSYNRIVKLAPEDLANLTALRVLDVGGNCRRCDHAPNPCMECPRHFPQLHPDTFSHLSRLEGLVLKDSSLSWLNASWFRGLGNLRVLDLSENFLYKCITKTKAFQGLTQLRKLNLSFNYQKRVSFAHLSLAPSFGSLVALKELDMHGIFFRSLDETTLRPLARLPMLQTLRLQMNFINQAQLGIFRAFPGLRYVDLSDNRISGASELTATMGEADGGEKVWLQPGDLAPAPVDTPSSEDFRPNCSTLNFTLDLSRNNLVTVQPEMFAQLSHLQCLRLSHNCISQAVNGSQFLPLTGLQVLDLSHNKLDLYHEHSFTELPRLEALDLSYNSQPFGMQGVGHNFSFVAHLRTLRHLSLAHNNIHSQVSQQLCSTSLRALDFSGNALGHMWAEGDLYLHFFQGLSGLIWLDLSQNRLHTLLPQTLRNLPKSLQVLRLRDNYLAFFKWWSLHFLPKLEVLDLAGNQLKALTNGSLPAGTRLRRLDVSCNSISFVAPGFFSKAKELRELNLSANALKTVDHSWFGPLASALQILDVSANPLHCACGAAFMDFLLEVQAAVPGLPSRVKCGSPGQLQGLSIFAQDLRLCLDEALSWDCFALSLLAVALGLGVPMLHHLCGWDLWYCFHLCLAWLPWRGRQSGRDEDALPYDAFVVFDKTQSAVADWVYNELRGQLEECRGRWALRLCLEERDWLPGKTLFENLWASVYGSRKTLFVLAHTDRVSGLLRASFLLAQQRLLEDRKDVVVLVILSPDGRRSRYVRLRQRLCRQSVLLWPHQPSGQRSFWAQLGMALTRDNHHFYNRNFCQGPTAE
The assay is described as follows: TLR9 inhibition reporter assay (HEK-Blue cells, SEAP reporter, ODN2006 stimulation). The following applies: HEK-Blue cells overexpressing human TLR9, SEAP reporter, ODN2006 5 nM. In a few lines: as §1

Turning to `CC(C)c1c(-c2cnc3c(cnn3C)c2)[nH]c2ccc(C3CCNCC3)cc12` [Example 96, 5-(3-isopropyl-5-(piperidin-4-yl)-1H-indol-2-yl)-1-methyl-1H-pyrazolo[3,4-b]pyridine], the values for the IC50 in assay [1], in assay [2] and in assay [3] were less than 100 nM, less than 100 nM and 100 to 1000 nM, respectively.
On to `Cc1c(-c2[nH]c3ccc(C4CCNCC4)cc3c2C(C)C)cn2ccnc2c1Cl` [Example 133, 8-chloro-6-(3-isopropyl-5-(piperidin-4-yl)-1H-indol-2-yl)-7-methylimidazo[1,2-a]pyridine], for which the IC50 in assay [1] was less than 100 nM; in assay [2], less than 100 nM; in assay [3], 1000 to 50000 nM.
For `CCc1c(-c2cnc3c(N)n[nH]c3c2)[nH]c2ccc(C3CCNCC3)cc12` [Example 240, 6-(3-ethyl-5-(piperidin-4-yl)-1H-indol-2-yl)-1H-pyrazolo[4,3-b]pyridin-3-amine], the IC50 in assay [1], in assay [2] and in assay [3] was 1000 to 50000 nM in each case.
With `CC(C)c1c(-c2ccc(C#N)c3ncccc23)[nH]c2ccc(C3CCNCC3)cc12` [Example 109, 5-(3-isopropyl-5-(piperidin-4-yl)-1H-indol-2-yl)quinoline-8-carbonitrile], the IC50 was less than 100 nM in assay [1], less than 100 nM in assay [2] and 100 to 1000 nM in assay [3].
As to `Cc1c(-c2ccnc3c2ccn3C)[nH]c2ccc(C3CCN(C4CCN(C(C)C)CC4)CC3)cc12` [Example 844, 4-(5-(1′-isopropyl-[1,4′-bipiperidin]-4-yl)-3-methyl-1H-indol-2-yl)-1-methyl-1H-pyrrolo[2,3-b]pyridine], the results for the IC50 in assay [1], in assay [2] and in assay [3] were less than 100 nM, 1000 to 50000 nM and less than 100 nM, respectively.
Turning to `Cc1cc2cc(-c3[nH]c4ccc(C5CCNCC5)cc4c3C(C)C)cc(CC(C)C)n2n1` [Example 144, 7-isobutyl-5-(3-isopropyl-5-(piperidin-4-yl)-1H-indol-2-yl)-2-methylpyrazolo[1,5-a]pyridine], the IC50 in assay [1] is more than 3130 nM; in assay [2], more than 3130 nM; in assay [3], 1000 to 50000 nM.
On to `CNC(=O)CN1CCC(c2ccc3[nH]c(-c4ccn5nc(C)cc5c4)c(C(C)C)c3c2)CC1` [Example 322, 2-(4-(3-isopropyl-2-(2-methylpyrazolo[1,5-a]pyridin-5-yl)-1H-indol-5-yl)piperidin-1-yl)-N-methylacetamide], for which the IC50 fell in the range of 1000 to 50000 nM in assay [1], 100 to 1000 nM in assay [2] and 1000 to 50000 nM in assay [3].
`Cc1nc2cc(-c3[nH]c4ccc(C5CCN(C6COC6)CC5)cc4c3C(C)C)cc(C)c2o1` [Example 709, 5-(3-isopropyl-5-(1-(oxetan-3-yl)piperidin-4-yl)-1H-indol-2-yl)-2,7-dimethylbenzo[d]oxazole]: the IC50 in assay [1] was in the range of 1000 to 50000 nM; in assay [2] it was 100 to 1000 nM; in assay [3] it was 1000 to 50000 nM.
With `CC(C)c1c(-c2ccc3[nH]c(=O)oc3c2)[nH]c2ccc(C3CCNCC3)cc12` [Example 10, 6-(3-isopropyl-5-(piperidin-4-yl)-1H-indol-2-yl)benzo[d]oxazol-2(3H)-one], the IC50 in assay [1] was less than 100 nM; in assay [2], less than 100 nM; in assay [3], 100 to 1000 nM.
Consider `CCc1c(-c2ccnc3[nH]cc(Cl)c23)[nH]c2ccc(C3CCNCC3)cc12` [Example 39, 3-chloro-4-(3-ethyl-5-(piperidin-4-yl)-1H-indol-2-yl)-1H-pyrrolo[2,3-b]pyridine], for which the IC50 in assay [1] lay in the range of 100 to 1000 nM; in assay [2], 100 to 1000 nM; in assay [3] it was 1000 to 50000 nM.
Regarding `CNC(=O)CN1CCC(c2ccc3[nH]c(-c4cnc5c(cnn5C)c4)c(C(C)C)c3c2)CC1` [Example 366, 2-(4-(3-isopropyl-2-(1-methyl-1H-pyrazolo[3,4-b]pyridin-5-yl)-1H-indol-5-yl)piperidin-1-yl)-N-methylacetamide], the IC50 in assay [1] is less than 100 nM; in assay [2], less than 100 nM; in assay [3] it was 1000 to 50000 nM.
For `COc1cc(-c2[nH]c3ccc(C4CCN(C5COC5)CC4)cc3c2C(C)C)nn2ncnc12` [Example 732, 6-(3-isopropyl-5-(1-(oxetan-3-yl)piperidin-4-yl)-1H-indol-2-yl)-8-methoxy-[1,2,4]triazolo[1,5-b]pyridazine], the figures for the IC50 in assay [1], in assay [2] and in assay [3] were less than 100 nM, less than 100 nM and 1000 to 50000 nM, respectively.
`CC(C)c1c(-c2ccc3ncccc3c2)[nH]c2ccc(C3CCNCC3)cc12` [Example 190, 6-(3-isopropyl-5-(piperidin-4-yl)-1H-indol-2-yl)quinoline]: the IC50 in assay [1] is 1000 to 50000 nM; in assay [2], less than 100 nM; in assay [3], 1000 to 50000 nM.
In the case of `Cc1cn2c(C)cc(-c3[nH]c4ccc(C5CCN(C(=O)CN(C)C)CC5)cc4c3C(C)C)cc2n1` [Example 499, 2-(dimethylamino)-1-(4-(2-(2,5-dimethylimidazo[1,2-a]pyridin-7-yl)-3-isopropyl-1H-indol-5-yl)piperidin-1-yl)ethan-1-one], the IC50 was in the range of 1000 to 50000 nM in assay [1], 100 to 1000 nM in assay [2] and 100 to 1000 nM in assay [3].

Values taken from patent publication US11739098B2 (BRISTOL-MYERS SQUIBB COMPANY, priority 2017, dated 2023).
